Assay results taken from patent US7250521B2, “Method for production of Δ1-pyrrolines” (Bayer CropScience Aktiengesellschaft, priority 2001, dated 2007).

Experiment: logP determination by HPLC on reverse-phase column (C 18), EEC directive 79/831 Annex V.A8
Format: physicochemical
Procedure: In the acidic range, the determination is carried out at pH 2.3 using the mobile phases 0.1% aqueous phosphoric acid and acetonitrile; linear gradient from 10% acetonitrile to 90% acetonitrile.
In the neutral range, the determination is carried out at pH 7.5 using the mobile phases 0.01 molar aqueous phosphate buffer solution and acetonitrile; linear gradient from 10% acetonitrile to 90% acetonitrile.

[1] = reverse-phase HPLC column (C 18), pH 2.3, acidic range, pH 2.3; 0.1% aqueous phosphoric acid/acetonitrile gradient; 43° C.; values marked a)
[2] = reverse-phase HPLC column (C 18), pH 7.5, neutral range, pH 7.5; 0.01 molar aqueous phosphate buffer/acetonitrile gradient; 43° C.; values marked b)

| chromatographic logP [1] | chromatographic logP [2] | chromatographic logP (acidic range, pH 2.3; 0.1% aqueous phosphoric acid/acetonitrile gradient; 43° C.; values marked a)) | Compound |
| --- | --- | --- | --- |
| 2.14 | 3.09 |  | CC(=O)c1ccc(C2CCC(c3ccccc3Br)=N2)cc1 (stereo not shown) [Example 84] |
| 1.21 | 3.32 |  | COc1ccc(C2CCC(c3ccccc3F)=N2)cc1 (stereo not shown) [Example 87] |
| 1.64 | 3.61 |  | Clc1ccccc1C1=NC(c2ccccc2)CC1 (stereo not shown) [Example 91] |
| 2.18 |  |  | Fc1ccc(C2CCC(c3ccccc3Br)=N2)cc1 (stereo not shown) [Example 99] |
| 4.52 | 5.56 |  | FC(F)(F)Oc1ccc(-c2ccc(C3CCC(c4ccccc4Br)=N3)cc2)cc1 (stereo not shown) [Example 102] |
| 4.87 |  |  | FC(F)(F)Oc1ccc(C2=NC(c3cccc(Cl)c3)CC2)cc1 (stereo not shown) [Example 105] |
| 3.26 |  |  | Fc1cccc(F)c1C1=NC(c2ccc(OCc3ccc(Cl)cc3)cc2)CC1 (stereo not shown) [Example 107] |
| 4.55 |  |  | Cc1cc(OC(F)(F)F)ccc1-c1ccc(C2CCC(c3c(F)cccc3F)=N2)cc1 (stereo not shown) [Example 111] |
| 5.05 |  |  | Fc1cc(F)c(C2=NC(c3ccc(-c4ccc(SC(F)(F)F)cc4)cc3)CC2)c(F)c1 (stereo not shown) [Example 114] |
| 5.46 |  |  | Fc1ccc(F)c(C2=NC(c3ccc(-c4ccc(SC(F)(F)F)cc4)cc3)CC2)c1F (stereo not shown) [Example 115] |
| 2 |  |  | O=C1CCC(c2ccc(OC(F)(F)F)cc2)N1 (stereo not shown) [Example V-1, 5-[4-(trifluoromethoxy)phenyl]-2-pyrrolidinone] |
| 2.84 |  |  | CCOc1cc(C(C)(C)C)ccc1C1CCC(=O)N1 (stereo not shown) [Example V-3, 5-(4-tert-butyl-2-ethoxyphenyl)-2-pyrrolidinone] |
| 1.86 |  |  | Cc1cc(Cl)ccc1C1CCC(=O)N1 (stereo not shown) [Example V-6] |
| 1.29 |  |  | COc1ccc(C2CCC(=O)N2)cc1F (stereo not shown) [Example V-9] |
| 1.92 |  |  | O=C1CCC(c2ccc(Cl)c(Cl)c2)N1 (stereo not shown) [Example V-10] |
| 1.52 |  |  | Cc1ccc(C2CCC(=O)N2)cc1 (stereo not shown) [Example V-14] |
| 0.55 |  |  | O=C1CCC(c2ccc(O)cc2)N1 (stereo not shown) [Example V-19] |
| 2.77 |  |  | CC(C)Oc1ccc(-c2ccc(C3CCC(=O)N3)cc2)cc1 (stereo not shown) [Example V-21] |
| 3.62 |  |  | O=C1CCC(c2ccc(-c3ccc(OCc4ccc(Cl)cc4)cc3)cc2)N1 (stereo not shown) [Example V-22] |
| 2.69 |  |  | CC(C)(C)Sc1ccc(C2CCC(=O)N2)cc1 (stereo not shown) [Example V-26] |

More lines, now with the values behind:

| Compound | chromatographic logP [1] | chromatographic logP [2] | chromatographic logP (acidic range, pH 2.3; 0.1% aqueous phosphoric acid/acetonitrile gradient; 43° C.; values marked a)) |
| --- | --- | --- | --- |
| Cc1ccc(C2CCC(c3ccccc3Br)=N2)c(C)c1 (stereo not shown) [Example 80] | 2.55 | 4.46 |  |
| Cc1ccc(C2CCC(c3ccccc3Br)=N2)cc1 (stereo not shown) [Example 81] | 2.17 | 4.07 |  |
| Clc1ccc(C2CCC(c3ccccc3Cl)=N2)cc1 (stereo not shown) [Example 82] | 2.6 | 4.23 |  |
| Clc1ccc(C2CCC(c3ccccc3Br)=N2)cc1 (stereo not shown) [Example 83] | 2.96 | 4.22 |  |
| CSc1ccc(C2CCC(c3ccccc3F)=N2)cc1 (stereo not shown) [Example 85] | 1.62 | 3.88 |  |
| COc1ccc(C2CCC(c3ccccc3Cl)=N2)cc1 (stereo not shown) [Example 86] | 1.66 | 3.47 |  |
| Brc1ccccc1C1=NC(c2ccc(CCc3ccccc3)cc2)CC1 (stereo not shown) [Example 88] | 3.77 | 5.35 |  |
| Clc1ccccc1C1=NC(c2ccc(Br)cc2)CC1 (stereo not shown) [Example 89] | 2.76 | 4.36 |  |
| Clc1ccc(C2=NC(c3ccccc3)CC2)cc1 (stereo not shown) [Example 90] | 1.43 |  |  |
| Clc1ccc(C2=NC(c3ccc(Br)cc3)CC2)cc1 (stereo not shown) [Example 92] | 2.17 |  |  |
| Fc1cccc(F)c1C1=NC(c2ccccc2)CC1 (stereo not shown) [Example 93] | 1.75 |  |  |
| Cc1ccccc1C1=NC(c2ccccc2)CC1 (stereo not shown) [Example 94] | 1.29 | 3.7 |  |
| Fc1ccc(C2CCC(c3ccccc3Cl)=N2)cc1 (stereo not shown) [Example 95] | 2 | 3.68 |  |
| CCOC(=O)Oc1ccc(-c2ccc(C3CCC(c4ccccc4Cl)=N3)cc2)cc1 (stereo not shown) [Example 96] | 3.14 |  |  |
| Fc1ccccc1C1=NC(c2ccc(Br)cc2)CC1 (stereo not shown) [Example 97] | 1.83 |  |  |
| Brc1ccc(C2CCC(c3ccccc3Br)=N2)cc1 (stereo not shown) [Example 98] | 3.11 |  |  |
| Fc1ccc(C2CCC(c3ccc(Br)cc3)=N2)cc1 (stereo not shown) [Example 100] | 1.73 | 4.14 |  |
| FC(F)(F)Oc1ccc(-c2ccc(C3CCC(c4ccc(Br)cc4)=N3)cc2)cc1 (stereo not shown) [Example 101] | 3.51 | 5.95 |  |
| CC(C)Oc1cc(-c2ccccc2)ccc1C1CCC(c2ccccc2Cl)=N1 (stereo not shown) [Example 103] | 3.26 |  |  |
| Oc1ccc(C2CCC(c3ccccc3F)=N2)cc1 (stereo not shown) [Example 104] | 0.59 |  |  |
| Oc1ccc(C2CCC(c3c(F)cccc3F)=N2)cc1 (stereo not shown) [Example 106] | 0.91 |  |  |
| Fc1cccc(F)c1C1=NC(c2ccc(OCc3ccc(C(F)(F)F)cc3)cc2)CC1 (stereo not shown) [Example 108] | 3.41 |  |  |

| Compound | chromatographic logP [1] | chromatographic logP [2] | chromatographic logP (acidic range, pH 2.3; 0.1% aqueous phosphoric acid/acetonitrile gradient; 43° C.; values marked a)) |
| --- | --- | --- | --- |
| Fc1cccc(F)c1C1=NC(c2ccc(OCc3ccc(OC(F)(F)F)cc3)cc2)CC1 (stereo not shown) [Example 109] | 3.61 |  |  |
| CC(C)Oc1ccc(C2CCC(c3c(F)cccc3F)=N2)cc1 (stereo not shown) [Example 110] | 2.14 |  |  |
| Cc1cc(-c2ccc(C3CCC(c4c(F)cccc4F)=N3)cc2)ccc1OC(F)(F)F (stereo not shown) [Example 112] | 4.57 |  |  |
| Fc1cccc(F)c1C1=NC(c2ccc(-c3ccc(Br)cc3)cc2)CC1 (stereo not shown) [Example 113] | 3.98 |  |  |
| COc1ccc(C2=NC(c3ccc(-c4ccc(OC(F)(F)F)cc4)cc3)CC2)cc1 (stereo not shown) [Example 116] | 2.94 |  |  |
| Fc1cc(F)c(C2=NC(c3ccc(-c4ccc(OC(F)(F)F)cc4)cc3)CC2)c(F)c1 (stereo not shown) [Example 117] | 4.57 |  |  |
| Fc1ccc(F)c(C2=NC(c3ccc(-c4ccc(OC(F)(F)F)cc4)cc3)CC2)c1F (stereo not shown) [Example 118] | 5.05 |  |  |
| CC(C)(C)c1ccc(C2CCC(=O)N2)cc1 (stereo not shown) [Example V-4] | 1.9 |  |  |
| CC(C)c1ccc(C2CCC(=O)N2)cc1 (stereo not shown) [Example V-5] | 2.13 |  |  |
| Cc1ccc(C2CCC(=O)N2)c(Cl)c1 (stereo not shown) [Example V-7] | 1.92 |  |  |
| O=C1CCC(c2ccc(Cl)cc2Cl)N1 (stereo not shown) [Example V-8] | 2.02 |  |  |
| O=C1CCC(c2ccc(Cl)cc2)N1 (stereo not shown) [Example V-11] |  |  | 1.61 |
| Cc1ccc(C2CCC(=O)N2)cc1Cl (stereo not shown) [Example V-12] | 1.92 |  |  |
| O=C1CCC(c2ccc(F)c(F)c2)N1 (stereo not shown) [Example V-13] | 1.43 |  |  |
| O=C1CCC(c2ccccc2)N1 (stereo not shown) [Example V-15] | 1.21 |  |  |
| O=C1CCC(c2ccc(Br)cc2)N1 (stereo not shown) [Example V-16] | 1.72 |  |  |
| O=C1CCC(c2ccc(F)cc2)N1 (stereo not shown) [Example V-17] | 1.32 |  |  |
| O=C1CCC(c2ccc(-c3ccc(O)cc3)cc2)N1 (stereo not shown) [Example V-18] | 1.47 |  |  |
| CCOC(=O)Oc1ccc(-c2ccc(C3CCC(=O)N3)cc2)cc1 (stereo not shown) [Example V-20] | 2.39 |  |  |
| O=C1CCC(c2ccc(-c3ccc(OCc4ccc(OC(F)(F)F)cc4)cc3)cc2)N1 (stereo not shown) [Example V-23] | 3.83 |  |  |
| O=C1CCC(c2ccc(SC(F)(F)F)cc2)N1 (stereo not shown) [Example V-25] | 1.59 |  |  |
